# Measurements as given in patent US20260284113A1, “COMPOSITIONS AND METHODS FOR TREATING PERIPHERAL VASCULAR DISEASE” (MAYO FOUNDATION FOR MEDICAL EDUCATION AND RESEARCH, priority 2022, published 2026).
# Test system: HUVECs
# Experiment: Matrigel tube formation assay
# Format: cell-based, human
# Conditions: HUVECs on Matrigel, six hours; PEP 2.5×10^11 vesicles/mL, VEGF 100 ng/ml
# Description: 96-well plates (Corning, Inc., Corning, NY) were pre-coated with MATRIGEL (Corning Life Sciences, Corning, NY) and allowed to solidify for one hour at 37° C. before cell seeding. GFP-tagged HUVECs (1×10^4 cells/well) were then added to individual wells in medium designated treatment. Images were acquired at time 0, one hour, three hours, and six hours post-treatment with an inverted microscope (DMI6000 B, Leica Microsystems GmbH, Wetzlar, Germany). All images were analyzed with Angiotool (Zudaire et al., 2011, PLoS One 6:e27385).
substance,measurement,value
VEGF,number of junctions per field,59.75
same,total length of branches per field,2459.59 pixels
